# Biological target: Omicron variant RBD or S1 domains-hACE2 binding (Homo sapiens, UniProt Q9BYF1)
# Sequence (Q9BYF1 18-740, stated change not applied): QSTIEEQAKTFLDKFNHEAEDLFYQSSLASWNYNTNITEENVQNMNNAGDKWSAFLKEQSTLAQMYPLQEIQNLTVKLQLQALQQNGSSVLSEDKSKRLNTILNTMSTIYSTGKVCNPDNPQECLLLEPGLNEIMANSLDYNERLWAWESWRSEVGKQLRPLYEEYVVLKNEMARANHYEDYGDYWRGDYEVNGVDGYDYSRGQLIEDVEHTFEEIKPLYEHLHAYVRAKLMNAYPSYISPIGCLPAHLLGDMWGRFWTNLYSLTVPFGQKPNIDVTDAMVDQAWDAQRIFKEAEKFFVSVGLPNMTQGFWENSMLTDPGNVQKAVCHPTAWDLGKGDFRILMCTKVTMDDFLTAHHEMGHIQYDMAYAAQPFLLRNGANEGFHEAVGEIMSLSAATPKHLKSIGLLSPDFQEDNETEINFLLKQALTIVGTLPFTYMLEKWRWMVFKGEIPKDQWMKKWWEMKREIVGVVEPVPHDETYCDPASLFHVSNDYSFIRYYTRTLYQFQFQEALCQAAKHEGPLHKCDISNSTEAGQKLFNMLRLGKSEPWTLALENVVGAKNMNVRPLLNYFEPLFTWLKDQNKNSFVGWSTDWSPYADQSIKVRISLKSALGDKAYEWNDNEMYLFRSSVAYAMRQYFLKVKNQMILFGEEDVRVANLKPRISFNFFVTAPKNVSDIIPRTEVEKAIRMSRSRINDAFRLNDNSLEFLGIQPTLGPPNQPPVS
compound,measurement,value
c1ccc(-c2ccc(C(c3ccccc3)n3ccnc3)cc2)cc1 (stereo not shown) [bifonazole],binding of Omicron variant RBD or S1 bioreporters to hACE2,significantly reduced binding

# — paper PMC9075979 (Molecular Therapy, 2022)
